According to ChEMBL document CHEMBL1137522, “Two new phenylpiperazines with atypical antipsychotic potential” (Bioorg Med Chem Lett, 2007):
Activity calls are given as the source filed them. The calls are words filed in the database; no cut-off is given here.

Key:
[1] = biological target: D(2) dopamine receptor (Rattus norvegicus, UniProt P61169); assay: Binding affinity at dopamine D2 receptor in rat striatal membranes; format: cell membranes, Striatum, Membrane
[2] = biological target: 5-hydroxytryptamine receptor 2A (Rattus norvegicus, UniProt P14842); assay: Binding affinity at 5HT2A receptor in rat striatal membranes; format: cell membranes, Striatum, Membrane
Sequence of 5-hydroxytryptamine receptor 2A (P14842 whole entry): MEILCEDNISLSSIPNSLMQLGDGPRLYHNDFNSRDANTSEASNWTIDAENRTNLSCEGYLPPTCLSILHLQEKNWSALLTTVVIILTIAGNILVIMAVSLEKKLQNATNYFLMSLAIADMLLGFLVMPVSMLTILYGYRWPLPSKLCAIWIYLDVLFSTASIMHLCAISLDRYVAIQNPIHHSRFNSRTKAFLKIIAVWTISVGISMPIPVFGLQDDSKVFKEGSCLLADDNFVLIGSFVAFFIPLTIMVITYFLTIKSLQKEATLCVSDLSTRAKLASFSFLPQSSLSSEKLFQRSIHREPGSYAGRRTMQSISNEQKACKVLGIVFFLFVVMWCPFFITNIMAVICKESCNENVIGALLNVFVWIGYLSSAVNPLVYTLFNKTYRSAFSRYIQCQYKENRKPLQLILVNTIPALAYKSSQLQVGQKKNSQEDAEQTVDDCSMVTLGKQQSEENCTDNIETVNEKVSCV

[3] = biological target: T1, 5-hydroxytryptamine receptor 1A (Rattus norvegicus, UniProt P19327); assay: Binding affinity at 5HT1A receptor in rat striatal membranes; format: cell membranes, Striatum, Membrane
T1 sequence (P19327 whole entry): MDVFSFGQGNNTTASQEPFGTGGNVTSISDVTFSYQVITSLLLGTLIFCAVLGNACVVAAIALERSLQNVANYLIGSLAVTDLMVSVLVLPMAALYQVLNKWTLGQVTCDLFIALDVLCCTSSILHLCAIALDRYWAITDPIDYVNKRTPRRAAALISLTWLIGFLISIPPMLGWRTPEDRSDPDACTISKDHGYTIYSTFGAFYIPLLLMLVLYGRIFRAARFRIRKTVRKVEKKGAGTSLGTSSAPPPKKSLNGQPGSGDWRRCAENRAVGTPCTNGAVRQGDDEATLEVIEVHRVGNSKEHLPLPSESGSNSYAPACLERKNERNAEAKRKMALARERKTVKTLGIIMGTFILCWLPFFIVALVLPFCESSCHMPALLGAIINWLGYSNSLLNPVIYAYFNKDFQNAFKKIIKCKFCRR

[4] = Binding affinity at adrenergic alpha 1 receptor in rat striatal membranes; format: cell membranes, Striatum, Membrane
[5] = system: Rattus norvegicus; assay: Induction of catalepsy in Mill Hill hooded rat at 10 mg/kg after 30-180 min; format: organism-based; parameters: dose 10 mg/kg; conditions: in vivo
[6] = species: Mus musculus; assay: Antagonist effect on amphetamine-induced hyperlocomotion in CPU mouse by open field test; format: functional, organism-based

Sequence of D(2) dopamine receptor (P61169 whole entry): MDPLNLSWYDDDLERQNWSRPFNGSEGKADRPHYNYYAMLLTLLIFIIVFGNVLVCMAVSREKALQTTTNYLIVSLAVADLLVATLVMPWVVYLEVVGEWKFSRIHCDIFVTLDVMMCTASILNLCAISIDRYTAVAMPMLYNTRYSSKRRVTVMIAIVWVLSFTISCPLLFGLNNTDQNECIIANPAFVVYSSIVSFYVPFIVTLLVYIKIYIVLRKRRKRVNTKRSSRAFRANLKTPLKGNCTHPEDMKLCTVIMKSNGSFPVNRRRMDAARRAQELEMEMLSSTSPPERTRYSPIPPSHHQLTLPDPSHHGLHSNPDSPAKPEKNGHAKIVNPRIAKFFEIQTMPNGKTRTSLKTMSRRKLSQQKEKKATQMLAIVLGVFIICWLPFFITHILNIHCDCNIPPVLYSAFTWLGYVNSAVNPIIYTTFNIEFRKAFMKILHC

SMILES: c1ccc(N2CCN(CCCOc3ccc4[nH]cnc4c3)CC2)cc1
- Ki [1]: 75.9 nM
- Ki [2]: 13.8 nM
- Ki [3]: 646 nM
- Log Ki [4]: -7.58
- Activity [5]: Not Active
- Activity [6]: Active

SMILES: COc1ccccc1N1CCN(CCCOc2ccc3[nH]cnc3c2)CC1
- Ki [1]: 8.71 nM
- Ki [2]: 79.4 nM
- Ki [3]: 15.1 nM
- Log Ki [4]: -8.23

SMILES: CN1CCN(C2=Nc3cc(Cl)ccc3Nc3ccccc32)CC1 [CLOZAPINE]
- Log Ki [4]: -7.65

SMILES: FC(F)(F)c1cccc(N2CCN(CCCOc3ccc4[nH]cnc4c3)CC2)c1
- Ki [1]: 15.1 nM
- Ki [2]: 102 nM
- Ki [3]: 389 nM
- Log Ki [4]: -6.92

SMILES: COc1ccccc1N1CCN(CCCOc2ccc3[nH]c(=S)[nH]c3c2)CC1
- Ki [1]: 1.7 nM
- Ki [2]: 19.1 nM
- Ki [3]: 178 nM
- Log Ki [4]: -8.71

SMILES: FC(F)(F)c1cccc(N2CCN(CCCOc3ccc4[nH]c(=S)[nH]c4c3)CC2)c1
- Ki [1]: 363 nM
- Ki [2]: 316 nM
- Ki [3]: 100 nM
- Log Ki [4]: -6.31

SMILES: S=c1[nH]c2ccc(OCCCN3CCN(c4ccccc4)CC3)cc2[nH]1
- Ki [1]: 41.7 nM
- Ki [2]: 2.04 nM
- Ki [3]: 933 nM
- Log Ki [4]: -7.53
- Activity [5]: Not Active
- Activity [6]: Active
